Here are results for two compounds from ChEMBL document CHEMBL1146999, “Bradykinin antagonists modified with dipeptide mimetic beta-turn inducers” (Bioorg Med Chem Lett, 2006).

Assay [1] has as its target T1, B2 bradykinin receptor (Homo sapiens, UniProt P30411).
T1 sequence (P30411 whole entry): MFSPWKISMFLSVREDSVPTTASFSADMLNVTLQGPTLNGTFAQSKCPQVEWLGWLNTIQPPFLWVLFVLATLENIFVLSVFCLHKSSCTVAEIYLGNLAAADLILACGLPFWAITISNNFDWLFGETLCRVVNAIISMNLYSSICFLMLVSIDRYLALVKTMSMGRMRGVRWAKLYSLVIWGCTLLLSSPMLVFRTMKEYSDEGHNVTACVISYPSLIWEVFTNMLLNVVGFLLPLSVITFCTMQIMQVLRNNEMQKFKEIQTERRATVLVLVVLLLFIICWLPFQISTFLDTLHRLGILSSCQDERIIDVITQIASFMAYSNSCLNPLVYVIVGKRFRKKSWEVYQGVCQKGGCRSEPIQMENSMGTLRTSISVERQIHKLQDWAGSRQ
In words: Antagonist activity against bradykinin B2 receptor. In kind it is functional. The conditions noted are these: read-out: pA2 (converted).

Assay [2] has as its target T1, B2 bradykinin receptor. In words: Binding affinity to human bradykinin B2 receptor transfected in CHO cells. In kind it is cell-based.

The Ki is a measure of affinity in units of concentration, obtained from inhibition or displacement. Higher therefore signals a looser hold on the target. For `NC(N)=NCCC[C@@H](N)C(=O)N[C@@H](CCCN=C(N)N)C(=O)N1CCC[C@H]1C(=O)N1CC(O)C[C@H]1C(=O)NCC(=O)N[C@@H](Cc1cccs1)C(=O)N[C@@H](CO)C(=O)N[C@@]1(Cc2ccccc2)CCCC2N(C1=O)[C@H](C(=O)N[C@@H](CCCN=C(N)N)C(=O)O)CC21CCCC1` (some centres undefined), on B2 bradykinin receptor [1], the Kb is 2.51 µM. At B2 bradykinin receptor [2], this compound had a Ki of 0.1 µM.
In the same order, the values of `NC(N)=NCCC[C@@H](N)C(=O)N[C@@H](CCCN=C(N)N)C(=O)N1CCC[C@H]1C(=O)N1CC(O)C[C@H]1C(=O)NCC(=O)N[C@@H](Cc1cccs1)C(=O)N[C@@H](CO)C(=O)N[C@]1(Cc2ccccc2)CCCC2N(C1=O)[C@H](C(=O)N[C@@H](CCCN=C(N)N)C(=O)O)CC21CCCC1` (some centres undefined) are > 10 µM and 3.16 µM.
